{"source": "patent US20230086152A1", "about": "“USE OF DESLORATADINE AND SALTS THEREOF IN PREPARING DRUG FOR TREATING NEURODEGENERATIVE DISEASE RELATED TO MOTOR DYSFUNCTION” (NANJING UNIVERSITY OF CHINESE MEDICINE, priority 2021, published 2023)", "format_in_all_cases": "in vivo", "key": {"SOD1-G93A model mice [1]": {"system": "SOD1-G93A model mice", "assay": "Detection of onset time and survival cycle", "settings": "model DLT group 20 mg/kg/day from the age of 56 days, p<0.05", "description": "4) Detection on onset time and survival cycle: The duration from onset to death of SOD1-G93A model mice is shorter, which is similar to the human ALS. Whether it can effectively delay the onset of the disease and prolong the survival cycle is an important indicator.\n(§1) 1) Animal grouping: Experimental test mice B6SJL-BTg (SOD1-G93A) 1Gur/J (002726) are purchased from Jackson Laboratory in the United States. A total of 48 SOD1-G93A mice are obtained by the gene identification, and their littermates are used as negative control, and they are randomly divided into 4 groups, which are: (1) a wild-type solvent group (2) a wild-type DLT group (20 mg/kg/day), (3) a model solvent group and (4) a model DLT group (20 mg/kg/day). All mice are administered from the age of 56 days (8 weeks old), and 12 mice in each group are sacrificed from the beginning of administration to the age of 120 days. […]\n5) Detection of onset time and survival cycle: The onset time of transgenic mice is defined as the dates when they first fall from the rotarod apparatus and will not persist for 180 seconds. The dates of deaths of the transgenic mice are defined as the deaths of the mice if the righting reflex cannot be completed within 30 seconds when the mice are lying on their sides, and the days are recorded as the death dates of the mice."}, "SOD1-G93A model mice [2]": {"system": "SOD1-G93A model mice", "assay": "Gait monitoring experimental test", "settings": "model DLT group 20 mg/kg/day vs model solvent group; after the 15th week; FIG. 2", "procedure": "(§2) 1) Animal grouping: Experimental test mice B6SJL-BTg (SOD1-G93A) 1Gur/J (002726) are purchased from Jackson Laboratory in the United States. A total of 48 SOD1-G93A mice are obtained by the gene identification, and their littermates are used as negative control, and they are randomly divided into 4 groups, which are: (1) a wild-type solvent group (2) a wild-type DLT group (20 mg/kg/day), (3) a model solvent group and (4) a model DLT group (20 mg/kg/day). All mice are administered from the age of 56 days (8 weeks old), and 12 mice in each group are sacrificed from the beginning of administration to the age of 120 days. Histopathological, biochemical and immunological analyses are performed on tissues such as blood, muscles and spinal cords from eyeballs of mice. Compounds are administered to the remaining mice until their deaths, which is used to detect the onset time and survival cycle of mice.\n3) Gait monitoring experimental test: In order to obtain footprints, the forefeet and hind feet of SOD1-G93A model mice are painted with red and green non-toxic pigments, respectively. The mice walk along a track with a length of 50 cm and a width of 10 cm, and the gaits of the mice are recorded. […] Footprints of the mice are analyzed, and the average of three result statistics is used in the analysis for recording the gait lengths of the mice."}, "SOD1-G93A model mice [3]": {"system": "SOD1-G93A model mice", "assay": "Rotarod experimental test", "settings": "model DLT group 20 mg/kg/day vs model solvent group; days 101 to 115; FIG. 1", "description": "1) Rotarod experimental test: SOD1-G93A model mice will have motor dysfunction when they are onset, and therefore, the motor coordination and balance function of the forelimb and hind limbs can be assessed by detecting the duration that the mice stay on the rotarod.\nas §1\n2) Rotarod experimental test: From the age of 60 days, the motor function of SOD1-G93A model mice is detected by the rotarod apparatus. […] Motor coordination and balance are evaluated for each mouse by measuring the mouse's total movement time on the rotarod apparatus. Three trials are performed for each mouse, and the longest dwell time before falling is recorded, and the longest dwell time is set at 180 seconds."}, "SOD1-G93A model mice [4]": {"system": "SOD1-G93A model mice", "assay": "Cage experimental test (limb grip strength)", "settings": "model DLT group 20 mg/kg/day vs model solvent group; age of 14 to 15 weeks; FIG. 3", "description": "3) Cage experimental test: The SOD1-G93A model mice show atrophy of the hind limbs and decreased grip strength of the limbs after the onset of the disease. The handing strength at the limbs of the mice is detected by the cage experimental test.\nas §2, with “Compounds are administered to the remaining mice until their deaths, which is used to detect the onset time and survival cycle of mice.” left out\n4) Cage experimental test: From the 8th week, the test is carried out once a week. […] The maximum time for the mice to grip the cage cover is recorded, the maximum time is set to be 90 seconds, and the specific time is recorded when it is less than 90 seconds. […]"}}, "data": [{"smiles": "Clc1ccc2c(c1)CCc1cccnc1C2=C1CCNCC1", "note": "[desloratadine]", "values": [{"measurement": "onset time (first fall from the rotarod)", "setting": "SOD1-G93A model mice [1]; model solvent group 97.6±1.473 d, FIG. 4", "value": "103.4 ± 1.705", "unit": "days"}, {"measurement": "survival cycle (failure to complete the righting reflex within 30 seconds)", "setting": "SOD1-G93A model mice [1]; model solvent group 126±1.721 d, FIG. 5", "value": "131.6 ± 1.51", "unit": "days"}, {"measurement": "gait length analysis", "setting": "SOD1-G93A model mice [2]", "value": "significantly better"}, {"measurement": "time stayed on the rotarod", "setting": "SOD1-G93A model mice [3]", "value": "much longer period of time"}, {"measurement": "persistence in gripping the cage cover", "setting": "SOD1-G93A model mice [4]", "value": "persist better"}]}]}
